Measured values: patent US20230143604A1, “QW DOSING OF GIP RECEPTOR AGONIST PEPTIDE COMPOUNDS AND USES THEREOF” (TAKEDA PHARMACEUTICAL COMPANY LIMITED, priority 2020, published 2023)
pEC50: −log10 of the molar value. Where two headings read alike, the source gives them in different places.

Tests used:
[1] = Solubility in phosphate buffer pH 7.4
Outline: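 Solubility at pH 7.4 determined by stepwise addition of 200 mM phosphate buffer in 100 μL increments to 3 mg peptide, mixing briefly each time, until no insoluble material remained, then measured by liquid chromatography.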

[2] = system: C57BL/6J mice; experiment: Oral glucose tolerance test (OGTT); type: in vivo; settings: 3 nmol/kg s.c., 24 hours before glucose loading
Method: An oral glucose tolerance test (OGTT) was carried out using C57BL/6J mice with a 50% dextrose solution dosed at 5 ml/kg. Testing concentrations of 0.1 nmol/kg, 0.3 nmmol/kg, 3 nmol/kg or 10 nmol/kg were selected depending on the peptide. Each peptide or a vehicle (control group) was subcutaneously administered 24 hours (unless shown otherwise) before glucose loading and the blood glucose was measured at 0, 15, 30, and 60 minutes after glucose dosing.
% inhibition=(1−(AUC cpd−AUC naïve/AUC veh−AUC naïve))×100.

[3] = biological target: T1, human GLP-1R (Homo sapiens, UniProt P43220); experiment: Human GLP1R agonist activity, intracellular cAMP accumulation; type: cell-based; settings: HEK-293T cells overexpressing human GLP-1R, 1 hr; for pEC50: read-out: Human GLP1R cAMP EC50, HEK293T
T1 construct: HEK-293T cells overexpressing full-length human GLP-1R; FLAG (N); host or cells: HEK-293T
T1 sequence (P43220 24-463): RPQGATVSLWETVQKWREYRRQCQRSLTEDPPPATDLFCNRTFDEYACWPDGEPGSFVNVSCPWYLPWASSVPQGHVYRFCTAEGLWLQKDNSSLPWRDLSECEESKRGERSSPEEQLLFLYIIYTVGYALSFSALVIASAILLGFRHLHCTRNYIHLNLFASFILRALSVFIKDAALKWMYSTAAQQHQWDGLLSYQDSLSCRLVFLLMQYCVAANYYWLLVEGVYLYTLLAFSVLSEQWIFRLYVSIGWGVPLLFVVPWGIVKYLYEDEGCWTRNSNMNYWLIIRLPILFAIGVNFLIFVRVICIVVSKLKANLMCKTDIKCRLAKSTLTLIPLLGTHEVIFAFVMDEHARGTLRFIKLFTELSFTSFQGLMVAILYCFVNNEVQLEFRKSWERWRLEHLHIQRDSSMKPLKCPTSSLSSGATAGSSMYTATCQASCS
Outline: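 cAMP accumulation is measured by HTRF after a 1 hr, room-temperature, dark exposure of thawed cells (4×10^5 cells/mL in Krebs Ringer buffer) to compound. Activity is scaled between DMSO alone as 0% and 1 nm GLP-1 as 100%.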

For `CC[C@H](C)[C@H](NC(=O)[C@H](CO)NC(=O)[C@H](Cc1ccc(O)cc1)NC(=O)[C@H](CC(=O)O)NC(=O)[C@H](CO)NC(=O)[C@@H](NC(=O)[C@H](Cc1ccccc1)NC(=O)[C@@H](NC(=O)CNC(=O)[C@H](CCC(=O)O)NC(=O)C(C)(C)NC(=O)[C@H](Cc1ccc(O)cc1)NC)[C@@H](C)O)[C@@H](C)CC)C(=O)N[C@@H](C)C(=O)N[C@@H](CC(C)C)C(=O)N[C@@H](CC(=O)O)C(=O)N[C@@H](CCCNC(=N)N)C(=O)N[C@@H](CCCCNC(=O)CNC(=O)CNC(=O)CNC(=O)CNC(=O)CNC(=O)CCCCCCCCCCCCCCCCC(=O)O)C(=O)N[C@@H](C)C(=O)N[C@@H](CCC(N)=O)C(=O)NC(C)(C)C(=O)N[C@@H](CC(=O)O)C(=O)N[C@@H](Cc1ccccc1)C(=O)N[C@H](C(=O)N[C@@H](CC(N)=O)C(=O)N[C@@H](Cc1c[nH]c2ccccc12)C(=O)N[C@@H](CC(C)C)C(=O)N[C@@H](CC(C)C)C(=O)N[C@@H](C)C(=O)N[C@@H](CCC(N)=O)C(=O)N[C@@H](CO)C(=O)N1CCC[C@H]1C(=O)N[C@@H](CO)C(=O)N[C@@H](CO)C(=O)NCC(=O)N[C@@H](C)C(=O)N1CCC[C@H]1C(=O)N1CCC[C@H]1C(=O)N1CCC[C@H]1C(=O)N[C@@H](CO)C(=O)O)C(C)C` [Compound 52], the solubility ([1]; pH 7.4, aqueous buffer, pH 7.4 Phosphate Buffer - Solubility, 200 mM Phosphate buffer pH 7.4) was at least 30 mg/mL, the solubility ([1]; pH 7.4, solubility in phosphate buffer at pH 7.4, 200 mM phosphate buffer pH 7.4) was at least 15 mg/mL and the “Oral Glucose Tolerance Test Percent decrease in blood glucose AUC (%) over 60 mins” value [2] was 65% (3 nmol/kg). It also gave an EC50 ([3]; Human GLP1R cAMP EC50, HEK293T (nM)) of 17 nM.

In the case of `CC[C@H](C)[C@H](NC(=O)[C@H](Cc1ccccc1)NC(=O)[C@@H](NC(=O)CNC(=O)[C@H](CCC(=O)O)NC(=O)C(C)(C)NC(=O)[C@H](Cc1ccc(O)cc1)NC)[C@@H](C)O)C(=O)N[C@@H](CO)C(=O)N[C@@H](CC(=O)O)C(=O)N[C@@H](Cc1ccc(O)cc1)C(=O)N[C@@H](CO)C(=O)N[C@H](C(=O)NC(C)(C)C(=O)N[C@@H](CCCCNC(=O)CNC(=O)CNC(=O)CNC(=O)CNC(=O)CNC(=O)CCCCCCCCCCCCCCCCC(=O)O)C(=O)N[C@@H](CC(=O)O)C(=O)N[C@@H](CCCNC(=N)N)C(=O)NC(C)(C)C(=O)N[C@@H](C)C(=O)N[C@@H](CCC(N)=O)C(=O)NC(C)(C)C(=O)N[C@@H](CC(=O)O)C(=O)N[C@@H](Cc1ccccc1)C(=O)N[C@H](C(=O)N[C@@H](CC(N)=O)C(=O)N[C@@H](Cc1c[nH]c2ccccc12)C(=O)N[C@@H](CC(C)C)C(=O)N[C@@H](CC(C)C)C(=O)N[C@@H](C)C(=O)N[C@@H](CCC(N)=O)C(=O)N[C@@H](CO)C(=O)NCC(=O)O)C(C)C)[C@@H](C)CC` [Compound 53], the solubility ([1]; pH 7.4) was at least 15 mg/mL, the solubility ([1]; pH 7.4, aqueous buffer) was at least 30 mg/mL and the “Oral Glucose Tolerance Test Percent decrease in blood glucose AUC (%) over 60 mins” value [2] was 59% (3 nmol/kg). For the same compound, the pEC50 [3] was 7.32.

With `CC[C@H](C)[C@H](NC(=O)[C@H](Cc1ccccc1)NC(=O)[C@@H](NC(=O)CNC(=O)[C@H](CCC(=O)O)NC(=O)C(C)(C)NC(=O)[C@H](Cc1ccc(O)cc1)NC)[C@@H](C)O)C(=O)N[C@@H](CO)C(=O)N[C@@H](CC(=O)O)C(=O)N[C@@H](Cc1ccc(O)cc1)C(=O)N[C@@H](CO)C(=O)N[C@H](C(=O)NC(C)(C)C(=O)N[C@@H](CC(C)C)C(=O)N[C@@H](CC(=O)O)C(=O)N[C@@H](CO)C(=O)N[C@@H](CCCCNC(=O)CNC(=O)CNC(=O)CNC(=O)CNC(=O)CNC(=O)CNC(=O)CCCCCCCCCCCCCCCCC(=O)O)C(=O)N[C@@H](C)C(=O)N[C@@H](CCC(N)=O)C(=O)NC(C)(C)C(=O)N[C@@H](CC(=O)O)C(=O)N[C@@H](Cc1ccccc1)C(=O)N[C@H](C(=O)N[C@@H](CC(N)=O)C(=O)N[C@@H](Cc1c[nH]c2ccccc12)C(=O)N[C@@H](CC(C)C)C(=O)N[C@@H](CC(C)C)C(=O)N[C@@H](C)C(=O)N[C@@H](CCC(N)=O)C(=O)N[C@@H](CCCNC(=N)N)C(=O)NCC(=O)O)C(C)C)[C@@H](C)CC` [Compound 64] the solubility ([1]; pH 7.4) was at least 15 mg/mL, the solubility ([1]; pH 7.4, aqueous buffer) was at least 30 mg/mL and the “Oral Glucose Tolerance Test Percent decrease in blood glucose AUC (%) over 60 mins” value [2] was 53% (3 nmol/kg). For the same compound, the pEC50 [3] was 6.96.
